Earlier results on eleven compounds are cited in US20170273596A1, “METHOD FOR MONITORING SWALLOWING” (NESTEC S.A., priority 2014, published 2017).

The conditions of data set [1]: database Episuite 4.1.
For data set [2] the following is noted: database Episuite 4.1. This is another data set of the same source.

As to 2-Methylpropanal, in data set [1], the “Volatility: Air/water partition coefficient log K [w/v]” value is −2.31. For the compound `CC(=O)C(C)=O` [2,3-Butanedione], in data set [2], the “Lipophilicity: Oil/Water partition coefficient log Kow [w/v]” value is −1.34. Also, the “Volatility: Air/water partition coefficient log K [w/v]” value in data set [1] is −5.09. As to `CCC(=O)C(C)=O` [2,3-Pentanedione], the “Lipophilicity: Oil/Water partition coefficient log Kow [w/v]” value in data set [2] is −0.85. The “Volatility: Air/water partition coefficient log K [w/v]” value in data set [1] was −4.97.

`CCC(C)C=O` (stereo not drawn) [2-Methylbutanal]: in data set [2], the “Lipophilicity: Oil/Water partition coefficient log Kow [w/v]” value is on record as 1.23. Besides, in data set [1], the “Volatility: Air/water partition coefficient log K [w/v]” value is −2.20. In the case of `CC(C)CC=O` [3-Methylbutanal], the “Lipophilicity: Oil/Water partition coefficient log Kow [w/v]” value in data set [2] is on record as 1.23. The “Volatility: Air/water partition coefficient log K [w/v]” value in data set [1] was −2.19. As to `CC=O` [Acetaldehyde], the “Lipophilicity: Oil/Water partition coefficient log Kow [w/v]” value in data set [2] is −0.17. Further, in data set [1], the “Volatility: Air/water partition coefficient log K [w/v]” value is reported as −2.56. `CSC` [Dimethylsulfide]: the “Lipophilicity: Oil/Water partition coefficient log Kow [w/v]” value in data set [2] is 0.92. Besides, the “Volatility: Air/water partition coefficient log K [w/v]” value in data set [1] was −1.49. For the compound `CCCC(=O)OCC` [Ethylbutyrate], the “Lipophilicity: Oil/Water partition coefficient log Kow [w/v]” value in data set [2] is listed as 1.85. Also, in data set [1], the “Volatility: Air/water partition coefficient log K [w/v]” value is −1.79. Take `C=C(C)[C@H]1CC=C(C)CC1` [Limonene]: in data set [2], the “Lipophilicity: Oil/Water partition coefficient log Kow [w/v]” value is 4.38. The “Volatility: Air/water partition coefficient log K [w/v]” value in data set [1] is given as 0.12. Take `CS` [Methanethiol]: in data set [2], the “Lipophilicity: Oil/Water partition coefficient log Kow [w/v]” value is 0.78. For the same compound, in data set [1], the “Volatility: Air/water partition coefficient log K [w/v]” value is listed as −0.97. Consider `COc1cc(C=O)ccc1O` [Vanillin], for which the “Lipophilicity: Oil/Water partition coefficient log Kow [w/v]” value in data set [2] is 1.05. Besides, the “Volatility: Air/water partition coefficient log K [w/v]” value in data set [1] is reported as −8.47.
